# Columns and labels:
# [1] = molecular target: CFTR fragments containing MSD2 (Homo sapiens, UniProt P13569); assay: CFTR fragment stability analysis (WB) in transfected HEK293 cells; assay type: cell-based; settings: HEK293, 24 h incubation, 10 nM
# Method: (§1) CFTR correctors are expected to stabilize the expression of the protein domains with which they interact, resulting in an increased amount of protein.[35]−[37] To determinate the portion of CFTR with which ARN23765 interacts, constructs coding for CFTR fragments of different lengths (Figure 3A) were transfected in HEK293 cells, and the effect of 24 h incubation with ARN23765 on the expression of the truncated proteins was analyzed with WB. […] To better study ARN23765’s stabilization of MSD1 vs MSD2, we analyzed their expression in transfected HEK-293 cells over 6 h of cycloheximide treatment.
# (§2) Constructs coding for MSD1 (residues 1–380), A52-tagged MSD2 (residues 837–1196) and MSD2-NBD2 (residues 850–1480) were transfected in HEK293 cells using JetPEI reagent (101000053, Polyplus Technology). After 18 h transfection, cells were treated for 24 h with either 0.2% DMSO, VX-661 (3 μM), ARN23765 (10 nM) or corr-4a (10 μM). Cell lysates were analyzed by WB, as described in the dedicated paragraph.
# [2] = molecular target: CFTR fragments containing MSD1 (Homo sapiens, UniProt P13569); assay: as above; assay type: cell-based; settings: HEK293, 24 h incubation, 10 nM
# Method: as §1, §2
# wt-CFTR = molecular target: T1, wt-CFTR (Homo sapiens, UniProt P13569); assay: Live-cell photoaffinity labeling, streptavidin pull-down and CFTR Western blot; assay type: binding; settings: wt-CFTR CFBE41o- cells, 25-fold excess (25 μM) competitor 30 min before probe (1 μM)
# T1 construct: expressed in transfected cells
# Method: Wt-CFTR or F508del-CFTR CFBE41o- cells were plated at 2–2.5 × 10^6 cells/plate in 6 cm diameter dishes. The day after, sodium butyrate (5–2.5 mM) was added for 24 h; next, the medium was exchanged with fresh one supplemented with DMSO (0.25%) (276855, Sigma-Aldrich) or probe (1 μM). For competition experiments, a 25-fold excess of ARN23765 (25 μM) was added 30 min before probe’s addition. For the analysis of “corrected” F508del-CFTR, F508del-CFTR CFBE41o- cells were kept at 27 °C for 24 h before adding the probes. Probes were incubated with cells for 2 h, then the medium was removed, and plates were washed twice with phosphate buffer saline (PBS). Cells were placed on ice and irradiated for 5 min at a wavelength of 365 nm using a 100-W UV-lamp (95–0127–02 model B100-AP, Analytik Jena). Cells were harvested with trypsin (T4299, Sigma-Aldrich), washed with PBS (D8537, Sigma-Aldrich), and pellets were stored at −80 °C until used, centrifuged at 300 × g and washed twice with PBS (D8537, Sigma-Aldrich). Pellets from in-cell photoaffinity labeling with alkyne-probes (PAP_1 and PAP_2) were lysed in PBS plus protease inhibitor cocktail (78429, Thermo Scientific) by sonication. The suspension was centrifuged at 800 × g for 20 min at 4 °C to discard nuclei and cell debris. The total extracted proteins were quantified with the bicinchoninic acid (BCA) protein assay (23225, Thermo Scientific) and subjected to CuAAC before proceeding with pull-down. Pellets from in-cell photoaffinity labeling with desthio-biotinylated (DS-biot) probes (PAP_1 DS-biot, PAP_2 DS-biot, PAP_N1 DS-biot, PAP_N2 DS-biot) were lysed with a modified RIPA buffer [50 mM tris-HCl pH 8, 150 mM NaCl, 0.5% Triton-X100, 0.2% SDS, 1 mM ethylenediaminetetraacetic acid (EDTA)] supplemented with protease inhibitor cocktail and centrifuged at 10.000× g for 10 min. The protein content in the supernatant was quantified by BCA protein assay. Protein lysate (200 μg) was diluted to 800 μL and the Triton-X100 percentage was reduced to 0.2% before proceeding to pull-down.
# Copper-catalyzed azide–alkyne cycloaddition (CuAAC) was performed according to a previously described protocol.[62] Briefly, to the protein preparation (250 μL at 1 mg/mL protein concentration) the following reagents were added at the indicated final concentrations: 100 μM 5/6-TAMRA-azide-desthiobiotin (CLK-1110–5, Jena Bioscience), 1.0 mM tris-(2-carbossietil)phosphine (TCEP, C4706, Sigma-Aldrich), 100 μM tris-[(1-benzyl-1H-1,2,3-triazol-4-yl)methyl]amine (TBTA, 678937, Sigma-Aldrich), 1.0 mM CuSO4.5H2O (Sigma), and 0.8% sodium dodecyl sulfate (SDS). TBTA was first dissolved in DMSO at 83.5 mM and then diluted with four volumes of tert-butanol. The reaction was mixed by vortexing and incubated for 1 h at 25 °C. After the reaction time, proteins were precipitated with 5 volumes of cold acetone overnight at −20 °C. Samples were centrifuged for 20 min at 20.000× g, and the pellets were washed with methanol, air-dried, and finally resuspended with 600 μL of 1% SDS. SDS concentration was then diluted to 0.2% with PBS before proceeding to pull-down.
# High capacity streptavidin agarose (20359, Thermo Scientific) (25 μL) was added to PAP-labeled cell extracts for 1 h at room temperature under gentle rotation. The streptavidin beads were collected by centrifugation and washed four times with lysis buffer. Resin-bound proteins were eluted with 45 μL of 5 mM biotin (B4501, Sigma-Aldrich) for 30 min at room temperature and analyzed with Western blot for CFTR expression. Input samples (4 and 8 μg for wt-CFTR and F508del-CFTR CFBE41o-, respectively) were collected immediately before incubation with streptavidin resin. Input and pulled-down samples were analyzed with WB as described in the supplementary methods.
# CFTR fragments containing MSD1, sequence (P13569 1-380 limits assumed): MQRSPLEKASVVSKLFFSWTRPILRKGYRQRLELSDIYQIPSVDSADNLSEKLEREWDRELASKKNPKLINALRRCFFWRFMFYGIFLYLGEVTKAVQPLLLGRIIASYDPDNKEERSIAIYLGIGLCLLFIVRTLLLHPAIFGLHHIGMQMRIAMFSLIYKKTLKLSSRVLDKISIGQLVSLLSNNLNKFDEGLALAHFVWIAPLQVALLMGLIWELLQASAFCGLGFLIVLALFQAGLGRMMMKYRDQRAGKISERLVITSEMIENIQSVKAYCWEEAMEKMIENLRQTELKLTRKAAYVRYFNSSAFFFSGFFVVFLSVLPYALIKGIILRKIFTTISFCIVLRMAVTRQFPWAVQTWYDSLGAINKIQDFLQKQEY
# CFTR fragments containing MSD2, sequence (P13569 850-1196 limits assumed): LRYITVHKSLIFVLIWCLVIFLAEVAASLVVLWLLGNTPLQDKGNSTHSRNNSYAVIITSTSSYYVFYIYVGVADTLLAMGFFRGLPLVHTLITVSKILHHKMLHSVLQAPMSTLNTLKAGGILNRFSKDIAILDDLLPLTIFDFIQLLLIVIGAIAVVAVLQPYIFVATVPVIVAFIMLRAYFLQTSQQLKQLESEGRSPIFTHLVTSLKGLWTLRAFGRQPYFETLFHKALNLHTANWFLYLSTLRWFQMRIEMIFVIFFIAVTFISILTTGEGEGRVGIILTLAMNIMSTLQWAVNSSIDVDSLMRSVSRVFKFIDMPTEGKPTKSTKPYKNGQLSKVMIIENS
# T1 sequence (P13569 whole entry): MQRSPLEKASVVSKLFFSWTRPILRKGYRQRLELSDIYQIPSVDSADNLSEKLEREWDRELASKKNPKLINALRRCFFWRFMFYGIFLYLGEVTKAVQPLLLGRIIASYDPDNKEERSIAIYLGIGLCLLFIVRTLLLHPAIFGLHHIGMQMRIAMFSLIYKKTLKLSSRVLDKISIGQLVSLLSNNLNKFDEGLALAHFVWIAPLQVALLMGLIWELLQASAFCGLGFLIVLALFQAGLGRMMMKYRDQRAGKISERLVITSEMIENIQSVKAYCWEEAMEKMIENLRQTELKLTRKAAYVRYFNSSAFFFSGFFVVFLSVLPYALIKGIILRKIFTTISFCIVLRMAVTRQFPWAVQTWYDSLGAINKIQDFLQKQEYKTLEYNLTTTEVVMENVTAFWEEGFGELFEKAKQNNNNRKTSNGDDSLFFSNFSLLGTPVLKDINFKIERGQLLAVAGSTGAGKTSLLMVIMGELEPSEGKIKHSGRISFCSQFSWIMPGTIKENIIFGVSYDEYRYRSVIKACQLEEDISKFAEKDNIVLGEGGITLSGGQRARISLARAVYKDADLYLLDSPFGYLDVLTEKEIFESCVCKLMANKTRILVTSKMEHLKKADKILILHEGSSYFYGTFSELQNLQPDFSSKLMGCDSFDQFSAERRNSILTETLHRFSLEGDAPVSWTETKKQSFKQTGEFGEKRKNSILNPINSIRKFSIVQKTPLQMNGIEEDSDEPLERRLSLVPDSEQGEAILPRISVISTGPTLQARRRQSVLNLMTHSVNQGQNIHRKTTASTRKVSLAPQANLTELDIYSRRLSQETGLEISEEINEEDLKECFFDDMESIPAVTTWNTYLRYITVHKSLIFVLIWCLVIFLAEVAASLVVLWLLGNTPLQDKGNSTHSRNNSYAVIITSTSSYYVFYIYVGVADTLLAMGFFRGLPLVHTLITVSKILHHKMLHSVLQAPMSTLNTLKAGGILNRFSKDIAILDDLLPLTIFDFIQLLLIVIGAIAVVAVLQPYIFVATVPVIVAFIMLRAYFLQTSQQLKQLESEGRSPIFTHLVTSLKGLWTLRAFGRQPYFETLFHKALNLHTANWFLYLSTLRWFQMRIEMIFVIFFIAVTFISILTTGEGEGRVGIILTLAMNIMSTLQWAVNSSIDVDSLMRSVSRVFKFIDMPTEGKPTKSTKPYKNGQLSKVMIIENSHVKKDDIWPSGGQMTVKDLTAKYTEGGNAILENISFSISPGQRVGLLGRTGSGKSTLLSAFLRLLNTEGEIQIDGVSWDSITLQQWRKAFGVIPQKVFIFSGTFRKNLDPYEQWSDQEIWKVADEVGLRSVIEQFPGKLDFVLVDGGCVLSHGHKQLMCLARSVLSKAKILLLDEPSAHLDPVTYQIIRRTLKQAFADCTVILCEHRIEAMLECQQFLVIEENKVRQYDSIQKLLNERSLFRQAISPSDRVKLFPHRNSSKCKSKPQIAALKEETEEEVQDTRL
smiles,measurement,setting,value
CN(C(=O)c1cccc(-n2nc(C(F)(F)F)c3c2[C@@H](Oc2ccc(C(=O)O)cc2)CCC3)c1)c1ccc2c(c1)OC(F)(F)O2 [ARN23765],Expression of CFTR fragments containing MSD2 (WB),[1],no difference in expression
same,"Correction of CFTR with R domain deleted (delR construct, WB)",[2],still corrected
same,Expression of CFTR fragments containing MSD1 (WB),[2],increased expression
same,Competition: CFTR recovered in pull-down by PAP_1 DS-biot or PAP_2 DS-biot after preincubation with competitor,wt-CFTR,markedly reduced amount of the recovered protein

# Source: article PMC11873939, “Target Identification with Live-Cell Photoaffinity Labeling and Mechanism of Action Elucidation of ARN23765, a Highly Potent CFTR Corrector” (Journal of Medicinal Chemistry, 2025)
